# Test results published in EP0768085A1, “ANTIBACTERIAL AGENT” (DAIICHI PHARMACEUTICAL CO., LTD., priority 1994, dated 1996).
# Columns and labels:
# Assay type in all cases: cell-based
# [1] = test system: Staphylococcus aureus (209-P); assay: Antibacterial activity (IC), agar as in Example 8 (Example 15, Table 48); details: 18 h
# Experimental: (§1) The antibacterial action was evaluated by the inhibitory concentration (hereinafter abbreviated as IC) at which propagation of the bacteria cultured at 37°C for 18 hours was inhibited. Inhibition was determined by the turbidity of the medium. The expressions "IC≤100", "≤10", and "≤1" indicate that MIC-equivalent values obtained at the succesive […] dilution of the sample are 100-10 µg/ml, 10-1 µg/ml, and not more than 1 µg/ml, respectively. […] (In the subsequent Examples, the same rule applies correspondingly.) Table 39
# (§2) A suitable amount of a sample was dissolved in dimethylsulfoxide (DMSO), after which the resulting solution was diluted with the same amount of sterilized distilled water to prepare a bulk sample of 1,000 µg/ml. Separately, a bacterial liquid for the test (methicillin-resistant Staphylococcus aureus (MRSA) isolated from humans) which had been cultured in Mueller-Hinton broth (product of DIFCO) was prepared and inoculated to a Mueller-Hinton agar (product of DIFCO) containing the sample so that the final inoculation amount of 10^6 CFU/ml was achieved. The final concentrations of the samples were 100, 10, and 1 µg/ml.
# (§3) After culturing at 37°C for 18 hours, the antibacterial activity was evaluated in terms of IC in a manner similar to that described in Example 4.
# The bacterium used for the test was Staphylococcus aureus (209-P).
# [2] = test system: Streptococcus aureus (TI-1); assay: Antibacterial activity (IC), agar as in Example 8 (Example 16, Table 49); details: 18 h
# Experimental: as §1, §2, §3
# In a manner similar to that described in Example 8, antibacterial activity of the invention compound was determined. The bacterium used for the test was […] aureus (TI-1).
# [3] = test system: Pasteurella multocida (Kobe-6); assay: Antibacterial activity (IC), agar as in Example 8 (Example 17, Table 50); details: 18 h, origin pig
# Experimental: as §1, §2, §3
# In a manner similar to that described in Example 8, antibacterial activity of the invention compound was determined. The bacterium used for the test was Pasteurella Kobe-6 (origin: pig, Pasteurella multocida).
# [4] = test system: methicillin-resistant Staphylococcus aureus (MRSA) from humans; assay: Antibacterial activity (IC), agar as in Example 8 (Example 19, Table 52); details: 18 h
# Experimental: as §1, §2, §3
# In a manner similar to that described in Example 8, antibacterial activity of a variety of ketonitrile derivatives shown in Table 52 was measured. The bacterium used for the test was methicillin-resistant Staphylococcus aureus (MRSA) from humans.
# Enterococcus from fish = assay: Antibacterial activity (IC), agar as in Example 8, media with 1.5% NaCl, 25°C (Example 20, Tables 53-55); details: for MIC: Enterococcus Seriolicida SE94-002
# Experimental: as §1, §2, §3
# (§4) In a manner similar to that described in Example 8, antibacterial activity of a variety of ketonitrile derivatives shown in Tables 53-55 was measured. The bacteria used for the test were Enterococcus and Pasteurella from fish. The culture conditions were such that the media contained 1.5% NaCl, and the culture temperature was 25°C.
# Pasteurella from fish = assay: as above; details: for MIC: Pasteurella piscicida KP94-02
# Experimental: as §1, §2, §3, §4
# [5] = Enterococcus Seriolicida KG86050
# [6] = Enterococcus Seriolicida MS89060
# [7] = Enterococcus Seriolicida MS89064
# [8] = Enterococcus Seriolicida MS89066
# [9] = Enterococcus Seriolicida MS89068
# [10] = Enterococcus Seriolicida SE94-001
# [11] = Enterococcus Seriolicida SE94-003
# [12] = Enterococcus Seriolicida SE94-004
# [13] = Enterococcus Seriolicida SE94-005
Compound,MIC [1],MIC [2],MIC [3],MIC ([4]; MRSA strain 891179),MIC ([4]; MRSA strain 891185),IC (Enterococcus from fish; Enterococcus Seriolicida HI),IC (Enterococcus from fish; [5]),IC (Enterococcus from fish; [6]),IC (Enterococcus from fish; [7]),IC (Enterococcus from fish; [8]),IC (Enterococcus from fish; [9]),IC (Enterococcus from fish; [10]),MIC (Enterococcus from fish),IC (Enterococcus from fish; [11]),IC (Enterococcus from fish; [12]),IC (Enterococcus from fish; [13]),MIC (Pasteurella from fish),IC (Pasteurella from fish; Pasteurella piscicida KP94-04),IC (Pasteurella from fish; Pasteurella piscicida KP94-05),IC (Pasteurella from fish; Pasteurella piscicida KP94-06),further results
"CC(Oc1cccc(Oc2ccc(C(F)(F)F)cc2Cl)c1)C(=O)C(C#N)c1ccccc1 (stereo not drawn) [Compound No. 105, 4-[3-(2-chloro-4-trifluoromethylphenoxy)phenoxy]-3-oxo-2-phenylpentanonitrile]",1 to 10 µg/mL,1 to 10 µg/mL,10 to 100 µg/mL,1 to 10 µg/mL,1 to 10 µg/mL,≤10 (10-1 µg/ml),≤10 (10-1 µg/ml),≤10 (10-1 µg/ml),≤10 (10-1 µg/ml),≤10 (10-1 µg/ml),≤10 (10-1 µg/ml),≤10 (10-1 µg/ml),1 to 10 µg/mL,≤10 (10-1 µg/ml),≤10 (10-1 µg/ml),≤10 (10-1 µg/ml),10 to 100 µg/mL,≤100 (MIC-equivalent values obtained at the succesive 2-fold dilution of the sample are 100-10 µg/ml),≤100 (MIC-equivalent values obtained at the succesive 2-fold dilution of the sample are 100-10 µg/ml),≤100 (MIC-equivalent values obtained at the succesive 2-fold dilution of the sample are 100-10 µg/ml),MIC ([4]; MRSA strain 891187): 1 to 10 µg/mL; MIC ([4]; MRSA strain 891192): 1 to 10 µg/mL; MIC ([4]; MRSA strain 900048): 1 to 10 µg/mL; MIC ([4]; MRSA strain 900056): 1 to 10 µg/mL
"CC(Oc1cccc(Oc2ccc(C(F)(F)F)cc2Cl)c1)C(=O)C(C#N)c1cccc(C(F)(F)F)c1 (stereo not drawn) [Compound No. 106, 4-[3-(2-chloro-4-trifluoromethylphenoxy)phenoxy]-3-oxo-2-(3-trifluoromethylphenyl)pentanonitrile]",1 to 10 µg/mL,1 to 10 µg/mL,10 to 100 µg/mL,,,≤10 (10-1 µg/ml),≤10 (10-1 µg/ml),≤10 (10-1 µg/ml),≤10 (10-1 µg/ml),≤10 (10-1 µg/ml),≤10 (10-1 µg/ml),≤10 (10-1 µg/ml),1 to 10 µg/mL,≤10 (10-1 µg/ml),≤10 (10-1 µg/ml),≤10 (10-1 µg/ml),10 to 100 µg/mL,≤100 (MIC-equivalent values obtained at the succesive 2-fold dilution of the sample are 100-10 µg/ml),≤100 (MIC-equivalent values obtained at the succesive 2-fold dilution of the sample are 100-10 µg/ml),≤100 (MIC-equivalent values obtained at the succesive 2-fold dilution of the sample are 100-10 µg/ml),
"CC(Oc1cccc(Oc2ccc(C(F)(F)F)cc2Cl)c1)C(=O)C(C#N)c1ccc(Cl)cc1Cl (stereo not drawn) [Compound No. 108, 4-[3-(2-chloro-4-trifluoromethyl-phenoxy)phenoxy)-2-(2,4-dichlorophenyl)-3-oxopentanonitrile]",1 to 10 µg/mL,1 to 10 µg/mL,10 to 100 µg/mL,,,≤10 (10-1 µg/ml),≤10 (10-1 µg/ml),≤10 (10-1 µg/ml),≤10 (10-1 µg/ml),≤10 (10-1 µg/ml),≤10 (10-1 µg/ml),≤10 (10-1 µg/ml),1 to 10 µg/mL,≤10 (10-1 µg/ml),≤10 (10-1 µg/ml),≤10 (10-1 µg/ml),10 to 100 µg/mL,≤100 (MIC-equivalent values obtained at the succesive 2-fold dilution of the sample are 100-10 µg/ml),≤100 (MIC-equivalent values obtained at the succesive 2-fold dilution of the sample are 100-10 µg/ml),≤100 (MIC-equivalent values obtained at the succesive 2-fold dilution of the sample are 100-10 µg/ml),
"CC(Oc1cccc(Oc2ccc(Br)cc2F)c1)C(=O)C(C#N)c1ccc(Cl)c(Cl)c1 (stereo not drawn) [Compound No. 109, 4-[3-(4-bromo-2-fluorophenoxy)phenoxy]-2-(3,4-dichlorophenyl)-3-oxopentanonitrile]",1 to 10 µg/mL,≤ 1 µg/mL,1 to 10 µg/mL,1 to 10 µg/mL,1 to 10 µg/mL,≤10 (10-1 µg/ml),≤10 (10-1 µg/ml),≤10 (10-1 µg/ml),≤10 (10-1 µg/ml),≤10 (10-1 µg/ml),≤10 (10-1 µg/ml),≤10 (10-1 µg/ml),1 to 10 µg/mL,≤10 (10-1 µg/ml),≤10 (10-1 µg/ml),≤10 (10-1 µg/ml),1 to 10 µg/mL,,,,MIC ([4]; MRSA strain 891187): 1 to 10 µg/mL; MIC ([4]; MRSA strain 891192): 1 to 10 µg/mL; MIC ([4]; MRSA strain 900048): 1 to 10 µg/mL; MIC ([4]; MRSA strain 900056): 1 to 10 µg/mL
"CC(Oc1cccc(Oc2ccc(Br)cc2F)c1)C(=O)C(C#N)c1cccc(Cl)c1 (stereo not drawn) [Compound No. 110, 4-[3-(4-bromo-2-fluorophenoxy)phenoxy]-2-(3-chlorophenyl)-3-oxopentanonitrile]",1 to 10 µg/mL,1 to 10 µg/mL,10 to 100 µg/mL,1 to 10 µg/mL,1 to 10 µg/mL,≤10 (10-1 µg/ml),≤10 (10-1 µg/ml),≤10 (10-1 µg/ml),≤10 (10-1 µg/ml),≤10 (10-1 µg/ml),≤10 (10-1 µg/ml),≤10 (10-1 µg/ml),1 to 10 µg/mL,≤10 (10-1 µg/ml),≤10 (10-1 µg/ml),≤10 (10-1 µg/ml),10 to 100 µg/mL,≤100 (MIC-equivalent values obtained at the succesive 2-fold dilution of the sample are 100-10 µg/ml),≤100 (MIC-equivalent values obtained at the succesive 2-fold dilution of the sample are 100-10 µg/ml),≤100 (MIC-equivalent values obtained at the succesive 2-fold dilution of the sample are 100-10 µg/ml),MIC ([4]; MRSA strain 891187): 1 to 10 µg/mL; MIC ([4]; MRSA strain 891192): 1 to 10 µg/mL; MIC ([4]; MRSA strain 900048): 1 to 10 µg/mL; MIC ([4]; MRSA strain 900056): 1 to 10 µg/mL
"CC(Oc1cc(Oc2ccc(C(F)(F)F)cc2Cl)ccc1[N+](=O)[O-])C(=O)C(C#N)c1ccc(Cl)cc1Cl (stereo not drawn) [Compound No. 116, 4-[5-(2-chloro-4-trifluoromethylphenoxy)-2-nitrophenoxy]-2-(2,4-dichlorophenyl)-3-oxopentanonitrile]",1 to 10 µg/mL,1 to 10 µg/mL,1 to 10 µg/mL,,,≤10 (10-1 µg/ml),≤10 (10-1 µg/ml),≤10 (10-1 µg/ml),≤10 (10-1 µg/ml),≤10 (10-1 µg/ml),≤10 (10-1 µg/ml),≤10 (10-1 µg/ml),1 to 10 µg/mL,≤10 (10-1 µg/ml),≤10 (10-1 µg/ml),≤10 (10-1 µg/ml),10 to 100 µg/mL,≤100 (MIC-equivalent values obtained at the succesive 2-fold dilution of the sample are 100-10 µg/ml),≤100 (MIC-equivalent values obtained at the succesive 2-fold dilution of the sample are 100-10 µg/ml),≤100 (MIC-equivalent values obtained at the succesive 2-fold dilution of the sample are 100-10 µg/ml),
CC(Oc1cc(Oc2ccc(C(F)(F)F)cc2Cl)ccc1[N+](=O)[O-])C(=O)C(C#N)C(=O)N1CCCC1 (stereo not drawn) [compound 134],10 to 100 µg/mL,10 to 100 µg/mL,10 to 100 µg/mL,,,≤100 (MIC-equivalent values obtained at the succesive 2-fold dilution of the sample are 100-10 µg/ml),≤100 (MIC-equivalent values obtained at the succesive 2-fold dilution of the sample are 100-10 µg/ml),≤100 (MIC-equivalent values obtained at the succesive 2-fold dilution of the sample are 100-10 µg/ml),≤100 (MIC-equivalent values obtained at the succesive 2-fold dilution of the sample are 100-10 µg/ml),≤100 (MIC-equivalent values obtained at the succesive 2-fold dilution of the sample are 100-10 µg/ml),≤100 (MIC-equivalent values obtained at the succesive 2-fold dilution of the sample are 100-10 µg/ml),≤100 (MIC-equivalent values obtained at the succesive 2-fold dilution of the sample are 100-10 µg/ml),10 to 100 µg/mL,≤100 (MIC-equivalent values obtained at the succesive 2-fold dilution of the sample are 100-10 µg/ml),≤100 (MIC-equivalent values obtained at the succesive 2-fold dilution of the sample are 100-10 µg/ml),≤100 (MIC-equivalent values obtained at the succesive 2-fold dilution of the sample are 100-10 µg/ml),10 to 100 µg/mL,,,,
